Reference: ChEMBL document CHEMBL1141256, “Panaxadiol glycosides that induce neuronal differentiation in neurosphere stem cells” (2007)
Calls of active or inactive are those of the source. The rule behind the calls is not given here.

Assays:
[1] = Neurogenesis in TUJ+MAP2+ mouse neural stem cells at 8 uM for 24 hrs relative to control
[2] = Neurogenesis in TOPRO+ mouse neural stem cells at 8 uM after 24 hrs relative to control
[3] = Neurogenesis in GFAP+ mouse neural stem cells at 8 uM after 24 hrs relative to control
Neural stem cell [4] = experiment: Inhibition of calcium induced neurogenesis in mouse neural stem cells in presence of 10 uM nifedipine
[5] = Neurogenesis of TUJ/MAP2+ mouse neural stem cells at 8 uM in presence of 5 uM nifedipine assessed as calcium influx relative to control
[6] = Neurogenesis of TUJ/MAP2+ mouse neural stem cells at 8 uM assessed as calcium influx relative to control
Neural stem cell [7] = experiment: Increase in calcium concentration in mouse neural stem cells at 5 uM assessed as […] ratio F350/F380; settings: TDE = time-dependent effect
Neural stem cell [8] = experiment: Neuronal differentiation in TUJ/MAP2+ EGF responsive mouse neural stem cells at 1 to 8 uM after 72 hrs
Neural stem cell [9] = experiment: Decrease in number of neurons in TUJ/MAP2+ mouse neural stem cells at 8 uM after 72 hrs
Neural stem cell [10] = experiment: Neurogenesis of TUJ/MAP2+ mouse neural stem cells at 8 uM afte 12, 24, 48 hrs
Neural stem cell [11] = experiment: Decrease in number of neurons in TUJ/MAP2+ mouse neural stem cells at 15 uM
[12] = Neurogenesis in TUJ+MAP2+ mouse neural stem cells at 1 uM relative to control
[13] = Neurogenesis in TOPRO+ mouse neural stem cells at 1 uM relative to control
[14] = Neurogenesis in GFAP+ mouse neural stem cells at 1 uM relative to control

SMILES | Activity [1] [%] | Activity [2] [%] | Activity [3] [%] | Activity (Neural stem cell [4]) | Activity [5] [%] | Activity [6] [%] | Activity (Neural stem cell [7]) | Activity (Neural stem cell [8]) | Activity (Neural stem cell [9]) | Activity (Neural stem cell [10]) | Activity (Neural stem cell [11]) | Activity [12] [%] | Activity [13] [%] | Activity [14] [%]
C=C(CCC=C(C)C)[C@H]1CC[C@]2(C)[C@@H]1[C@H](O)C[C@@H]1[C@@]3(C)CC[C@H](O[C@@H]4O[C@H](CO)[C@@H](O)[C@H](O)[C@H]4O[C@@H]4O[C@H](CO)[C@@H](O)[C@H](O)[C@H]4O)C(C)(C)[C@@H]3CC[C@]12C [GISENOSIDE RK1] | 28.4 | 107 | 28.8 |  |  |  |  |  |  |  |  |  |  | 
CC(C)=CC/C=C(\C)[C@H]1CC[C@]2(C)[C@@H]1[C@H](O)C[C@@H]1[C@@]3(C)CC[C@H](O[C@@H]4O[C@H](CO)[C@@H](O)[C@H](O)[C@H]4O[C@@H]4O[C@H](CO)[C@@H](O)[C@H](O)[C@H]4O)C(C)(C)[C@@H]3CC[C@]12C [GINSENOSIDE RG5] | 30.5 | 132 | 25.2 | Active | 4 | 29.6 | tde | Active | Active | Active | Active |  |  | 
CC1=C(/C=C/C(C)=C/C=C/C(C)=C/C(=O)O)C(C)(C)CCC1 [TRETINOIN] |  |  |  |  |  |  |  |  |  |  |  | 16.5 | 148 | 36.3
CC(C)=CCC[C@](C)(O)[C@H]1CC[C@]2(C)[C@@H]1[C@H](O)C[C@@H]1[C@@]3(C)CC[C@H](O[C@@H]4O[C@H](CO)[C@@H](O)[C@H](O)[C@H]4O[C@@H]4O[C@H](CO)[C@@H](O)[C@H](O)[C@H]4O)C(C)(C)[C@@H]3CC[C@]12C | 16.1 | 140 | 35.9 |  |  |  |  |  |  |  |  |  |  | 
